Here are results for nine molecules from patent US20130197030A1, “Substituted 1,3-Dioxanes and There Uses” (Evolva Sa, priority 2007, published 2013).

As usually defined, the inhibition is the percentage by which the read-out fell short of the control. The term IC50 denotes the concentration at which inhibition is half-maximal. Broadly, the Ki is the equilibrium dissociation constant of an inhibitor or competing ligand from its target.

SMILES strings stand for the structures. A value given as a limit tells only on which side of the number the result lay.

One data set addresses T1, Thromboxane synthase (Homo sapiens, UniProt P24557).
T1 construct: Human Platelet Thromboxane Synthase Assay; from tissue; host or cells: human platelets
T1 sequence (P24557 1-533): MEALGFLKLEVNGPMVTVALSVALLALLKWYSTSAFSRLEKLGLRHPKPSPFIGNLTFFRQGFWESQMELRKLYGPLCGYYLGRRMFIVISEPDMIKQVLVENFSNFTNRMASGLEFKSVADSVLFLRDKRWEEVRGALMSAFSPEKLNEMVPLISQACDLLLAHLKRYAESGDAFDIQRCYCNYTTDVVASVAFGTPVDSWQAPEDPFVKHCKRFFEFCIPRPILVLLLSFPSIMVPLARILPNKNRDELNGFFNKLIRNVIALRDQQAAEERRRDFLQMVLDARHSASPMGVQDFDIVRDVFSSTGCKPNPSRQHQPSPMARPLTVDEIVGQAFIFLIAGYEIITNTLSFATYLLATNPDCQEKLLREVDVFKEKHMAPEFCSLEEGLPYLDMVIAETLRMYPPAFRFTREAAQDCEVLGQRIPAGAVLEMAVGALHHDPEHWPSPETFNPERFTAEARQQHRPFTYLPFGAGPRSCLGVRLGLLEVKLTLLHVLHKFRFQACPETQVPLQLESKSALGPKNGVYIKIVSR
Briefly: Human platelet thromboxane synthase assay. It is filed as biochemical. As for the experimental part: The compounds were tested for thromboxane synthase inhibition essentially as described by Borsch-Haubold A G, Pasquet S, Watson S P. (1998). Direct inhibition of cyclooxygenase-1 and -2 by the kinase inhibitors SB 203580 and PD 98059. […] 1. Imidazole derivatives. J Med. Chem. (10):1139-48 according to the following:
Pre-incubation time, temp: 15 minutes at 25° C. Incubation time, temp: 3 minutes at 25° C.
Incubation Buffer: 10 mM Tris-HCl, pH 7.4
Quantification Method: ETA quantification of TxB2

For data set [1], the system named is U-46619-induced platelet aggregation. The data set can be described thus: TP receptor platelet aggregation, rabbit. It counts as cell-based, New Zealand Rabbit. As for the experimental part: Thrombosis Research 33:277-288.
TP Receptor Platelet Aggregation—Rabbit:
New Zealand Rabbit (2.75±0.25 kg) platelet rich plasma
Assay: Inhibition of 1.5 μM U-46619-induced platelet aggregation Incubation Time, Temp: 5 minutes at 37° C. Incubation Buffer Trisodium Citrate (0.13 M)-treated platelet rich plasma
Time of Assessment: 5 minutes
Quantification Method Optical Density Change

The test system of data set [2] is arterial thrombosis in a mouse model. Briefly: Arterial thrombosis in a mouse model (FeCl3, femoral artery). It counts as in vivo. The note with it: mice. On the procedure:
The solutions are diluted 3.3-fold in saline and 100 μl/25 g is injected. Thus, the above-mentioned doses of 100 and 300 mg/kg of compound correspond to final doses of 30 and 100 mg/kg.
During the experiments, a soluble salt of the drug is provided (e.g., potassium salt of compound C), diluted in saline. Of this formulation, 100 μl/25 g is injected i.v. in the tail vein (dose of 100 mg/kg).
Solutions are injected (100 μl/25 g body weight) i.v. in the tail vein over 2 min to obtain doses of each compound of 30 mg/kg and 100 mg/kg. Aspirin is given the same way at a dose of 200 mg/kg. Clopidogrel is administered by oral gavage at a dose of 20 mg/kg at 6-7 hours prior to the experiment. The animals assigned to each group are matched for body weight. Mice are typically 8-10 weeks old males and are in a 100% Swiss genetic background.
The flow in each image is expressed as a percentage of that at the contralateral side, and data are averaged for all 120 images to determine total flow. The same analysis is performed for 10 min intervals (which gives essentially the same information as the area under the curve). […] Flow before treatment is recorded as 100%, and that in occluded arteries as 0%. At the end of the experiment, blood is collected on 0.01M citrate buffer by heart puncture for determination of blood cell counts. Plasma is prepared by centrifugation and stored at −20° C. for determination of drug levels.
Statistical analysis for differences between two groups is performed by non-parametric Student t-test. Occlusion times >30 min were considered equal to 30 min for statistical analysis. Significance is set at p<0.05.

A further data set relates to KKA^y mice. Briefly: In vivo effect on serum glucose and other parameters in KKA^y mice. As for the experimental part: 52 male KKA^y mice are obtained commercially (e.g., from Clea Japan) at an age of 6 weeks and put on a high fat diet upon arrival. Individual mice were housed in IVC Type II cages during both the acclimatization and the experimental phase. Both food (high fat diet) and water are supplied ad libitum.
1 animal per cage. […] Lights on at 06:00 a.m. Temperature: 21-25° C. Relative humidity target range: 55-60%.
Mice were randomized into treatment groups according to their 4-h fasting blood glucose.
4 hours after the last administration, non-fasting conditions.
Gamma irradiated high fat diet is commercially available (e.g., Research Diets, Inc. New Brunswick, N.J. (Product # D12266BI)).
Blood is collected into heparin containing glass capillaries which are subsequently centrifuged in a “Haematokrit 24” centrifuge (Hettich) at 15′200×g for 10 minutes at room temperature to obtain the hematocrit value.
The following serum parameters are determined on a COBAS INTEGRA 800 auto analyzer (Roche Diagnostics, Switzerland) using the reagents and protocols provided by the supplier.
All measurements are made on Day 14 of administration, except for the food intake and body weight measurements that are made on Day 12.

Data set [3] addresses T2, Thromboxane receptor (TP) (Homo sapiens, UniProt P21731).
T2 construct: expressed in transfected cells; host or cells: HEK-293 cells
T2 sequence (P21731 1-343): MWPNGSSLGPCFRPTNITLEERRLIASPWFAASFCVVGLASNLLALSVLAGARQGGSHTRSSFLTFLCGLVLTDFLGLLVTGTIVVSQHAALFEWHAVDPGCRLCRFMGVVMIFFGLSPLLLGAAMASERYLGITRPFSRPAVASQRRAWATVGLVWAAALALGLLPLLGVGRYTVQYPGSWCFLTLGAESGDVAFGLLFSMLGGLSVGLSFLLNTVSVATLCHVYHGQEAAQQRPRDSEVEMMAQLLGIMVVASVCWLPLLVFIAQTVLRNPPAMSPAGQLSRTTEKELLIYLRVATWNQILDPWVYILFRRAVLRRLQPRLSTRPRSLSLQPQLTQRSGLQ
Briefly: TP receptor radioligand binding. The note with it: Human recombinant HEK-293 cells. As for the experimental part: The compounds were tested on radioligand binding assays for thromboxane receptor binding essentially as described by Hedberg et al. (1988) J. Pharmacol. Exp. Ther. 245:786-792 and Saussy et al. (1986) J. Biol. Chem. 261: 3025-3029 according to the following:
TP Receptor Radioligand Binding Studies:
Human recombinant HEK-293 cells,
Incubation Time, Temp: 30 minutes at 25° C.
Incubation Buffer: 50 mM Tris-HCl, pH 7.4, 154 mM NaCl
Non-Specific Ligand: 1 μM SQ-29548
The data were transformed to semi-log and then analysed using non-linear regression to a four-parameter dose-response curve Y=Bottom+(Top−Bottom)/(1+10̂((LogEC50−X)*HillSlope)) using the log(agonist) vs. response—Variable slope function of GraphPad Prism software (http://graphpad.com/help/prism5/prism5help.html?usingnonlinear_regression_step_by_s.htm).

Where [4] appears, read: 14-day oral gavage BID, dose not given.
Setting [5] is: 53 mg/kg BID oral gavage 14 days, high fat diet, Day 14.

As to `Cc1ccc2nc(Cl)c([C@H]3OC[C@@H](C/C=C\CCC(=O)O)[C@@H](c4ccccc4O)O3)cc2c1` (racemic) [Compound 13, (Z)-6-(2-(2-Chloro-6-methyl-quinolin-3-yl)-4-(2-hydroxyphenyl)-1,3-dioxan-5-yl)hex-4-enoic acid], at Thromboxane synthase, the “Inhibition of thromboxane synthase (in words)” value is recorded as “potent inhibitors of thromboxane synthase”. Moreover, testing at 5 µM against Thromboxane synthase (at 5 μM) gave an inhibition of 85%. In addition, in data set [1], the “Inhibition of platelet aggregation (in words)” value is listed as “potent inhibitors of platelet aggregation”. Besides, the inhibition at 10 µM in data set [1] (Oryctolagus cuniculus, at 10 μM, 1.5 μM U-46619, platelet rich plasma) came to 100%. In addition, in data set [2] (dose not given), the Occlusion time entry is reported as “prolongs the occlusion time” and the Total blood flow entry is “improves total blood flow”. In the data set on KKA^y mice (setting [4]), the FFA result is recorded as “decreases the FFA”, the HbA1c levels entry is reported as “decreased” and the Heart weight result is “has no effect on heart weight”. For the same molecule, the Body weight result in the data set on KKA^y mice (oral gavage BID, dose not given) is listed as “do not alter body weight”.
Consider `O=C(O)CC/C=C\C[C@@H]1CO[C@H](c2coc3ccc(Cl)cc3c2=O)O[C@@H]1c1ccccc1O` (single isomer, unassigned) [Compound 3-1], for which the “Binding to the TP receptor (comparison of enantiomers)” value in data set [3] is “binds with higher affinity than enantiomer 3-2”. For the same molecule, the IC50 was 88.9 nM in data set [3] (5 nM [3H] SQ-29548) and 365 nM at Thromboxane synthase. For the same molecule, in data set [3] (5 nM [3H] SQ-29548), the Ki came to 58 nM. The inhibition at 1 µM in data set [3] (at 1 μM, 5 nM [3H] SQ-29548) was 99%; at Thromboxane synthase (at 1 μM), 67%.
Turning to `O=C(O)CC/C=C\C[C@H]1CO[C@@H](c2coc3ccc(Cl)cc3c2=O)O[C@H]1c1ccccc1O` (single isomer, unassigned) [Compound 3-2], in data set [3] (5 nM [3H] SQ-29548), the concentration for half-maximal inhibition (IC50) is 1680 nM, the Ki is 1100 nM and the inhibition at 10 µM came to 93%. Also, the IC50 against Thromboxane synthase was more than 100000 nM. Besides, the inhibition at 100 µM against Thromboxane synthase (at 100 μM) was 37%.
`CC(=O)Oc1ccccc1C(=O)O` [Aspirin]: in data set [2] (200 mg/kg i.v.), the Occlusion time entry is “has no effect on the occlusion time” and the Total blood flow entry is “has no significant effect on the total blood flow”.
As for `COC(=O)[C@H](c1ccccc1Cl)N1CCc2sccc2C1` [Clopidogrel], the Total blood flow entry in data set [2] (20 mg/kg oral gavage 6-7 hours prior) is recorded as “significantly improved total blood flow”.
As to `O=C(O)CC/C=C\C[C@@H]1CO[C@H](c2ccccc2Cl)O[C@@H]1c1ccccc1O` [Compound C, (Z)-6-((2S,4S,5R)-2-(2-chlorophenyl)-4-(2-hydroxyphenyl)-1,3-dioxan-5-yl)hex-4-enoic acid, reference compound], in data set [2] (30 mg/kg in vehicle i.v.), the Occlusion time result is “slightly prolongs the occlusion time as compared to aspirin (p=0.024), but has no effect as compared to vehicle” and the Total blood flow result is “has no effect on total blood flow”. Also, in the data set with KKA^y mice (setting [5]), the FFA result was “decreases the FFA”, the HbA1C result is “decreased”, the Heart weight result was “has no effect on heart weight” and the “Serum Glucose” value is given as “decreased”. Besides, the “Body weight” value in the data set with KKA^y mice (53 mg/kg BID oral gavage, high fat diet, Day 12) is on record as “do not alter body weight”.
As to `COc1ccccc1[C@@H]1O[C@H](c2ccccc2Cl)OC[C@@H]1C/C=C\CCC(=O)O` [Compound E, (Z)-6-((2R,4R,5S)-2-(2-chlorophenyl)-4-(2-methoxyphenyl)-1,3-dioxan-5-yl)hex-4-enoic acid, reference compound], the inhibition at 10 µM in data set [3] (5 nM [3H] SQ-29548) turned out to be 85%. Besides, 30 µM produced 52% inhibition against Thromboxane synthase (at 30 μM).
In the case of `COc1ccccc1[C@@H]1O[C@H](c2ccccc2Cl)OC[C@@H]1C/C=C\CCC(=O)O` [Compound F, (Z)-6-((2R,4R,5S)-2-(2-chlorophenyl)-4-(2-methoxyphenyl)-1,3-dioxan-5-yl)hex-4-enoic acid, reference compound], in data set [3] (5 nM [3H] SQ-29548), the IC50 was found to be 23.4 nM and the Ki is 15.3 nM. In data set [3] (at 0.3 μM, 5 nM [3H] SQ-29548), the inhibition at 0.3 µM was found to be 96%. Besides, half-maximal inhibition on Thromboxane synthase (IC50) required 20400 nM. Besides, the “Thromboxane synthase Human platelet Inhibition (%)” value on Thromboxane synthase (at 30 μM) was 62 @ 30 μM %.
Turning to `CN(CCOc1ccc(CC2SC(=O)NC2=O)cc1)c1ccccn1` (stereo not shown) [Rosiglitazone, reference compound], the Heart weight in the data set with KKA^y mice (5 mg/kg BID oral gavage 14 days, high fat diet, Day 14) was 226.2 ± 6.9 mg; in the data set on KKA^y mice (5 mg/kg BID oral gavage 14 days, high fat diet, Day 14, listed as rosiglitazone) it was “increased”.
